Source: US9944618B2, “Inhibiting neurotransmitter reuptake” (Mayo Foundation for Medical Education and Research, priority 2013, dated 2018)
Like-named read-outs stand apart in the source and are kept apart here.

How the values were obtained:
hERG = hERG (Homo sapiens (Human), UniProt Q12809); assay: Human ERG (hERG) assay, hERG currents in hERG-expressing CHO cells; type: cell-based
Excerpt: The voltage-dependent potassium channel encoded by the human ether-a-go-go-related gene (hERG) is believed to play a key role in repolarisation of the ventricular cardiac action potential. Changes in its activity, caused either by inherited mutations of the gene sequence or pharmacological modification, can lead to prolongation of action potential duration. This can lead to prolongation of the QT interval recorded in man on an electrocardiogram and to a potentially fatal cardiac arrhythmia known as Torsades de Pointes.
hERG currents were recorded from hERG-expressing CHO cells. The biophysical and pharmacological characterization of the hERG currents in these cells was performed.

[1] = target: human norepinephrine transporter (Homo sapiens (Human), UniProt P23975); assay: Human NET (norepinephrine transporter) uptake assay; type: cell-based; conditions: read-out: hNET Ki
Chain of human norepinephrine transporter (P23975 whole entry): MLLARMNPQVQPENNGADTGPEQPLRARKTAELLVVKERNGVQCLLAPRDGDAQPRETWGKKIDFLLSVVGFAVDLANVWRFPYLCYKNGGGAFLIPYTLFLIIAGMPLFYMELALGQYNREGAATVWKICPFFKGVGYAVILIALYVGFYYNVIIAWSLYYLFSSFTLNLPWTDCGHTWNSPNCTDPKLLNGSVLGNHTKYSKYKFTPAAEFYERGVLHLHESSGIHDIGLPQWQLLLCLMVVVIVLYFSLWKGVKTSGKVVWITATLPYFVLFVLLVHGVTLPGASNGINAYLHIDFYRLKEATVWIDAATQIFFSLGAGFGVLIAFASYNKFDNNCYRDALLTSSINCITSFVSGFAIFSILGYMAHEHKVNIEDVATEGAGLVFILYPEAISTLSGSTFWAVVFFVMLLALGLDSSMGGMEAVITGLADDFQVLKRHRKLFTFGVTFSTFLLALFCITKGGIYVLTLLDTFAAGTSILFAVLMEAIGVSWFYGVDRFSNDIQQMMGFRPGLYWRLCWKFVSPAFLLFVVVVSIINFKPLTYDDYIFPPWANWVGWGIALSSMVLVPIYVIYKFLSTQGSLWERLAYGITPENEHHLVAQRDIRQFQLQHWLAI
Method in brief: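 HEK293F cells transfected with human NET were thawed, plated at about 60,000 cells/well and held at 37 °C for at least 3 h. Compounds came from 10 mM DMSO stocks, with nomifensine as control, in 1×HBSS/0.02 M HEPES. Uptake was followed with a neurotransmitter transporter dye, dosed as % of vendor reconstitution, in triplicate.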

CYP2D6 = CYP2D6 (Homo sapiens (Human), UniProt P10635); assay: Cytochrome P450 inhibition assay, recombinant CYP2D6 (MAMC substrate); type: in vitro ADME; conditions: recombinant enzyme
Chain of CYP2D6 (P10635 whole entry): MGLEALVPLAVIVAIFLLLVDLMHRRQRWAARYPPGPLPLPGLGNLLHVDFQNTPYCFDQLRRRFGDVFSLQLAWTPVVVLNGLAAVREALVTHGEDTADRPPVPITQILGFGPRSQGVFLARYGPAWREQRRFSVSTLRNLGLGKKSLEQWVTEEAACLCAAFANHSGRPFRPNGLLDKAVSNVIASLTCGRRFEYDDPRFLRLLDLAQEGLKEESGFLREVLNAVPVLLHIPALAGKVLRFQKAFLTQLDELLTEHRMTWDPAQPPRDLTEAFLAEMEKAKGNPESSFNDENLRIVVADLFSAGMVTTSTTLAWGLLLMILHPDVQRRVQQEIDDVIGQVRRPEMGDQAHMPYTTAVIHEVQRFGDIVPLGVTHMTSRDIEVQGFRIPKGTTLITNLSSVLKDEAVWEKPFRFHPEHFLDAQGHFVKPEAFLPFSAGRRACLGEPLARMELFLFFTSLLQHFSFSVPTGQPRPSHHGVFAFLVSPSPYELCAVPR
Method: Recombinant enzymes, 3A4 and 2D6, generated using the ABL yeast expression system were used. […] The assay mixture also included K2HPO4 (pH 7.4; conc. 0.1 M) and NADPH (conc. 1 mM). The incubation time was 30 minutes, and the reference inhibitor was A-naphthoflavone. For CYP2D6, the enzyme amount was 2 pmol per well, and the substrate (7-methoxy-4-(aminomethyl)-coumarin; MAMC) was used at 20 μM. The assay mixture also included K2HPO4 (pH 7.4; conc. 0.1 M) and NADPH (conc. 0.06 mM). The incubation time was 35 minutes, and the reference inhibitor was quinidine.
Briefly, 0.6 μL of serially diluted compound was added to 75 μL water. 10 μL of diluted compound in water was then added to each assay plate. 20 μL of a K2HPO4, enzyme, and substrate mixture was added. After 10 minutes of room temperature pre-incubation, 10 μL of NADPH was added, and the plates were placed at 37° C. for 30 or 35 minutes depending on the enzyme being tested. After the incubation was complete, 20 μL of 0.1% Tris/ACN was added to the plate. The plate was read on a FluorStar fluorescence plate reader.

[2] = pKa of basic centres (Table 1); type: physicochemical
[3] = target: human dopamine transporter (Homo sapiens (Human), UniProt Q01959); assay: Human DAT (dopamine transporter) uptake assay; type: cell-based; conditions: read-out: hDAT Ki
Chain of human dopamine transporter (Q01959 whole entry): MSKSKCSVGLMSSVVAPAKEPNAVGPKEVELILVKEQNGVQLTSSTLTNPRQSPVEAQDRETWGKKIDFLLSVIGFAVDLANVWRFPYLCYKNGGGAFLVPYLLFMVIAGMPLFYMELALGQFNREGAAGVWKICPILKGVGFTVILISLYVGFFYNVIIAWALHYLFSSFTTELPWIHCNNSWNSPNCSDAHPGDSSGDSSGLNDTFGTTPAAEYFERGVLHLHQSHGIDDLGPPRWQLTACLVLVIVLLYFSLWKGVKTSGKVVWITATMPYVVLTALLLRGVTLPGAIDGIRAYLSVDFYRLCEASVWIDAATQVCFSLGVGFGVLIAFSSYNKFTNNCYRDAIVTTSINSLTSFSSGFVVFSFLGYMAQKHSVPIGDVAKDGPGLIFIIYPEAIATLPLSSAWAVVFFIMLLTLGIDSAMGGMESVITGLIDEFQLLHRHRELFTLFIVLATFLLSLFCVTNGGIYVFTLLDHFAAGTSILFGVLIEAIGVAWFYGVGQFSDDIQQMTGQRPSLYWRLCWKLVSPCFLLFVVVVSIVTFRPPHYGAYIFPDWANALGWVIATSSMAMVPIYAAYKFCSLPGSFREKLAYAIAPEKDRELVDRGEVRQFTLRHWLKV
Method: This protocol was designed to measure inhibition of uptake by the human dopamine transporter. […] The Assay Buffer (AB) was 1×HBSS and 0.02 M HEPES.
(§1) The HEK293F cells were transfected with the human dopamine transporter and frozen in 1 mL aliquots at about 1E+07 cells/mL. On the day of the experiment, the cells were removed from −80° C. or liquid nitrogen and thawed in a room temperature water bath. The cells were dilute to about 1-2E+06 with Freestyle medium. A 1 mL sample (1:2 dilution) was prepared, and the cells were counted. The cells were spun at 1100 rpm for 5 minutes, and the medium was aspirated off. The cells were resuspend in medium at 1.5E+06 cells/mL for about 60,000 cells per well. 40 μL of cells were dispensed per well in the Biocoat plates. The plates were spun at 1100 rpm for 1 minute to improve homogeneity of the cell layer and were incubated at 37° C. for a minimum of 3 hours.
12 μL of test compound (10 mM) in DMSO was added to the wells, and nomifensine was used as a control. […] The neurotransmitter transporter dye was prepared in AB prior to use.
Due to the proprietary nature of the dye formulation, all dye concentrations were expressed as a percentage of the vendor-recommended dye reconstitution. Thus, the above calculations were valid when both [dye] and K1 were expressed in the same units (%). Compounds were tested in triplicate (n=3).

[4] = target: human serotonin transporter (Homo sapiens (Human), UniProt P31645); assay: Human SERT (serotonin transporter) uptake assay; type: cell-based; conditions: read-out: hSERT Ki
Chain of human serotonin transporter (P31645 whole entry): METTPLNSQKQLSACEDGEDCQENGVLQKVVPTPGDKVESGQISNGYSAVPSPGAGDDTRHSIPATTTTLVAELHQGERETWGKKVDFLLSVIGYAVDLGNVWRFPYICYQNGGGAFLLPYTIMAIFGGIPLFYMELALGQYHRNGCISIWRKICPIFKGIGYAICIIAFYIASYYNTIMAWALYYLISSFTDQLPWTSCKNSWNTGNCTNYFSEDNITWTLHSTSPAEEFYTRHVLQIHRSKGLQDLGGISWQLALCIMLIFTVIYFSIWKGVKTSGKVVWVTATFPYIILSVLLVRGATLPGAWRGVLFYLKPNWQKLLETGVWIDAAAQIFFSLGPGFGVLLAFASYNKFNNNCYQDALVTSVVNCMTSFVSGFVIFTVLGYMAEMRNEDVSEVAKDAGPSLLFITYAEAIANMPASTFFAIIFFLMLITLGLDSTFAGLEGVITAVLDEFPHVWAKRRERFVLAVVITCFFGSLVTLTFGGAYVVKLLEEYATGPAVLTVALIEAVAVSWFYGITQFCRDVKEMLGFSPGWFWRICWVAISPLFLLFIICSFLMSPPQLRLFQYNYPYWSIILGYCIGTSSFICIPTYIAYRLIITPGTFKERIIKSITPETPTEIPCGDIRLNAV
Method: This protocol was designed to measure inhibition of uptake by the human serotonin transporter. […] The Assay Buffer (AB) was […] and 0.02 M HEPES.
as §1, with “serotonin” for “dopamine”
12 μL of test compound (10 mM) in DMSO was added to the wells, and nomifensine was used as a control. Fluoxetine (final assay concentration of 10 μM) was used for background signal. The neurotransmitter transporter dye was prepared in AB prior to use.
Due to the proprietary nature of the dye formulation, all dye concentrations were expressed as a percentage of the vendor-recommended dye reconstitution. Thus, the above calculations were valid when both [dye] and Km were expressed in the same units (%). Compounds were tested in triplicate (n=3).

CYP3A4 = CYP3A4 (Homo sapiens (Human), UniProt P08684); assay: Cytochrome P450 inhibition assay, recombinant CYP3A4 (BFC substrate); type: in vitro ADME; conditions: recombinant enzyme
Chain of CYP3A4 (P08684 whole entry): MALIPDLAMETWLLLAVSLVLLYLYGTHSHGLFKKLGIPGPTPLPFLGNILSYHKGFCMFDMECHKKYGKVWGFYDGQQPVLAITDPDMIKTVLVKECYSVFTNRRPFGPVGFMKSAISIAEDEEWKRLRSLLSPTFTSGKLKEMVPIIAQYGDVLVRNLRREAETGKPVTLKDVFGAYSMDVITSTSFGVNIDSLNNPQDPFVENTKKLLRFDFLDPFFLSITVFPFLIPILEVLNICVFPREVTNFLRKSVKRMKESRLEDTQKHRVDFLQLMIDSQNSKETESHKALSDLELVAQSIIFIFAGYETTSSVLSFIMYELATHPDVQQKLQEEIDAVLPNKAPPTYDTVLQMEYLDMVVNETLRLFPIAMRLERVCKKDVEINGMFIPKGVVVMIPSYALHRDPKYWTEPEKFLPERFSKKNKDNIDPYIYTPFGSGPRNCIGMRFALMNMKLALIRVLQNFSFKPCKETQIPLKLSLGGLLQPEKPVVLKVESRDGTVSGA

[5] = first base, e.g., an aliphatic primary, secondary, or tertiary amine, read-out: pKa (Base 1)
[6] = second base in the same molecule (if present), read-out: pKa (Base 2)
[7] = selected reference compounds, CHO cells
[8] = selected reference compounds, HEK293F cells, Cheng-Prusoff

Chain of hERG (Q12809 whole entry): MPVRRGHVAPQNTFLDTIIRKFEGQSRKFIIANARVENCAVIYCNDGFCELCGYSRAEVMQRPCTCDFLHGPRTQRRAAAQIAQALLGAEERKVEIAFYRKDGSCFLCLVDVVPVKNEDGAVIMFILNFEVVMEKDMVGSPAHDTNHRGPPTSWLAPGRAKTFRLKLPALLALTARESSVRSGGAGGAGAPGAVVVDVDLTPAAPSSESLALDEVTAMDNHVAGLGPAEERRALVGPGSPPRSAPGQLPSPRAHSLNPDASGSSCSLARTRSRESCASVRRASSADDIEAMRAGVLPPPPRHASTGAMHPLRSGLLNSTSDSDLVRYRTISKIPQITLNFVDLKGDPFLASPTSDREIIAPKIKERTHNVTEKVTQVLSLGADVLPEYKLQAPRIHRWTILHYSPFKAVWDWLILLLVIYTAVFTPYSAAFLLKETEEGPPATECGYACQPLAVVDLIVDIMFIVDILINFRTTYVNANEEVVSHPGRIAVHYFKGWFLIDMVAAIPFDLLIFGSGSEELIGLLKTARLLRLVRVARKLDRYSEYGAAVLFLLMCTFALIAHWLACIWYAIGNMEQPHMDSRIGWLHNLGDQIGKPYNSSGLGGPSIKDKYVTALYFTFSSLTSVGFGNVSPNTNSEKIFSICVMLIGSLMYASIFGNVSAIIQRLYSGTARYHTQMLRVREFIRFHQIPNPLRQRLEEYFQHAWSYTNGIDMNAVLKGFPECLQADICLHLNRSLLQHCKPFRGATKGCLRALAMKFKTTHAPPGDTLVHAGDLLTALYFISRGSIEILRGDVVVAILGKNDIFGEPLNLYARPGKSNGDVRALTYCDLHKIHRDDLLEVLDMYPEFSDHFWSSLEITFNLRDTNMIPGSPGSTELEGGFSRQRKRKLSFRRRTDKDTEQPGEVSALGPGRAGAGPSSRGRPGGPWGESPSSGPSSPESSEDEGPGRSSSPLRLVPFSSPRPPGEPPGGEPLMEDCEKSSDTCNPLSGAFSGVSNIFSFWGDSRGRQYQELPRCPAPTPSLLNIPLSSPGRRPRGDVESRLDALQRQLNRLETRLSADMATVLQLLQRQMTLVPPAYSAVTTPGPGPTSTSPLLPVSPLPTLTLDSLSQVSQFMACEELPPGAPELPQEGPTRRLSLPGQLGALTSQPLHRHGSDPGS

| Structure (SMILES) | Ki [1] | IC50 (CYP2D6) | pKa [2, 5] | Ki [3] | Ki [4] | IC50 (CYP3A4) | pKa [2, 6] | IC50 (hERG; hERG-expressing CHO cells) | pKa (Base 1) ([2]; first base, e.g., an aliphatic primary, secondary, or tertiary amine) | IC50 (hERG; [7]) | Ki [1, 8] | Ki [3, 8] | Ki [4, 8] |
| --- | --- | --- | --- | --- | --- | --- | --- | --- | --- | --- | --- | --- | --- |
| CNC[C@H](c1ccc2ccccc2c1)[C@H](OCC(=O)N1CCC1)c1ccccc1 [Compound 30] | 2.4 nM | – | 9.6 | 14.3 nM | 1 nM | – | – | 29000 nM | – | – | – | – | – |
| CNC[C@@H](c1ccc(Cl)c(Cl)c1)[C@@H](O)c1cccc(N)c1 [Compound 119] | 257 nM | 4100 nM | 9.4 | 75.5 nM | 1780 nM | 7900 nM | 4.3 | – | – | – | – | – | – |
| CNC[C@@H](c1ccc2ccccc2c1)[C@@H](O)c1cncc(OC)c1 [Compound 122] | 273 nM | 3400 nM | 9.6 | 49.6 nM | 124 nM | 20000 nM | 4.5 | – | – | – | – | – | – |
| CNCC(Cc1ccccc1OC)c1ccc2ccccc2c1 (stereo not shown) [Compound 132] | 10.3 nM | – | – | 41.8 nM | 12.4 nM | – | – | 4700 nM | 10.1 | – | – | – | – |
| NC[C@@H](Cc1ccccc1O)c1ccc2ccccc2c1 [Compound 133] | 34.6 nM | 580 nM | 9.4 | 52.7 nM | 116 nM | 10000 nM | – | – | – | – | – | – | – |
| CNC[C@H](c1ccc2ccccc2c1)[C@@H](O)c1cc(F)cc(F)c1 [Compound 141] | 32.6 nM | 370 nM | 9.6 | 91.9 nM | 296 nM | 20000 nM | – | – | – | – | – | – | – |
| CNC[C@@H](c1ccc2ccccc2c1)[C@H](O)c1cc(F)cc(F)c1 [Compound 142] | 13.8 nM | 660 nM | 9.6 | 95.3 nM | 208 nM | 20000 nM | – | – | – | – | – | – | – |
| CNC[C@@H](c1ccc(Cl)c(Cl)c1)[C@@H](O)c1cccc(OC)n1 [Compound 157] | 88.4 nM | 580 nM | 9.2 | 53.4 nM | 140 nM | 20000 nM | – | – | – | – | – | – | – |
| CNC[C@H](c1ccc(Cl)c(Cl)c1)[C@@H](O)c1cccc(Br)c1 [Compound 161] | 38.5 nM | 160 nM | 9.4 | 103 nM | 616 nM | 9200 nM | – | – | – | – | – | – | – |
| CNC[C@@H](c1ccc(Cl)c(Cl)c1)[C@@H](O)c1cccc(Br)c1 [Compound 162] | 108 nM | 790 nM | 9.4 | 110 nM | 806 nM | 4900 nM | – | – | – | – | – | – | – |
| CNCC(c1ccc2ccccc2c1)[C@@H](O)c1ccc(Cl)nc1 (stereo partly shown) [Compound 169] | 212 nM | 1300 nM | 9.6 | 146 nM | 268 nM | 20000 nM | – | – | – | – | – | – | – |
| CNC[C@@H](c1ccc(Cl)c(Cl)c1)[C@@H](O)c1cccnc1OC [Compound 171] | 454 nM | 2000 nM | 9.2 | 92 nM | 1850 nM | 20000 nM | 3.2 | – | – | – | – | – | – |
| CNC[C@H](c1ccc2ccccc2c1)[C@H](O)c1ccccc1 [compound 173] | – | – | – | – | – | – | – | – | – | 8800 nM | 0.5 nM | 4.6 nM | 1.2 nM |
| CNC[C@@H](c1ccc2ccccc2c1)[C@H](O)c1ccccc1 [compound 180] | – | – | – | – | – | – | – | – | – | 32000 nM | 2.9 nM | 47.5 nM | 14.8 nM |

More lines, main results first:

| Ki [1] | IC50 (CYP2D6) | pKa [2, 5] | Ki [3] | Ki [4] | IC50 (CYP3A4) | pKa [2, 6] | Structure (SMILES) | IC50 (hERG; hERG-expressing CHO cells) | pKa (Base 1) ([2]; first base, e.g., an aliphatic primary, secondary, or tertiary amine) | IC50 (hERG; [7]) | Ki [1, 8] | Ki [3, 8] | Ki [4, 8] |
| --- | --- | --- | --- | --- | --- | --- | --- | --- | --- | --- | --- | --- | --- |
| 2.2 nM | 320 nM | 9.9 | 106 nM | 22.7 nM | – | – | CNCC(c1ccc2ccccc2c1)[C@H](CO)c1ccccc1 (single isomer, unassigned) [Compound 25] | 33000 nM | – | – | – | – | – |
| 1.9 nM | – | 9.6 | 36.1 nM | 3.2 nM | – | – | CNC[C@H](c1ccc2ccccc2c1)[C@H](OCc1cc(C)no1)c1ccccc1 [Compound 20] | 4700 nM | – | – | – | – | – |
| 15.7 nM | – | 9 | 46.7 nM | – | – | – | CN(C)C[C@H](c1ccc2ccccc2c1)[C@H](O)c1ccccc1 [Compound 83] | 4300 nM | – | – | – | – | – |
| 171 nM | – | 9.4 | 27 nM | 661 nM | – | – | CNC[C@@H](c1ccc(Cl)c(Cl)c1)[C@@H](O)c1ccccc1 [Compound 114] | 11000 nM | – | – | – | – | – |
| 262 nM | 2400 nM | 9.4 | 88.5 nM | 662 nM | 9000 nM | – | CNC[C@@H](c1ccc(Cl)c(Cl)c1)[C@@H](O)c1cccc(SC)c1 [Compound 120] | – | – | – | – | – | – |
| 270 nM | 20000 nM | 9.4 | 5 nM | 2850 nM | 20000 nM | – | CNC[C@@H](c1ccc(Cl)c(Cl)c1)[C@@H](O)c1cccc(NS(=O)(=O)C(F)(F)F)c1 [Compound 121] | – | – | – | – | – | – |
| 371 nM | 2400 nM | 9.4 | 65.3 nM | 725 nM | 4800 nM | 5.1 | CNC[C@@H](c1ccc(Cl)c(Cl)c1)[C@@H](O)c1cccc(N2CCOCC2)c1 [Compound 125] | – | – | – | – | – | – |
| 500 nM | 3900 nM | 8.3 | 125 nM | 107 nM | 20000 nM | – | NC[C@@H](c1ccc2ccccc2c1)[C@@H](O)c1ccc(Cl)nc1 [Compound 126] | – | – | – | – | – | – |
| 649 nM | 15000 nM | 9.4 | 80.5 nM | 3280 nM | 20000 nM | – | CNC[C@H](c1ccc(Cl)c(Cl)c1)[C@@H](O)c1cccc(NS(=O)(=O)C(F)(F)F)c1 [Compound 127] | – | – | – | – | – | – |
| 2630 nM | 19000 nM | 9.4 | 193 nM | 3040 nM | 20000 nM | – | CNC[C@@H](c1ccc(Cl)c(Cl)c1)[C@@H](O)c1ccccc1[S+](C)[O-] (stereo partly shown) [Compound 128] | – | – | – | – | – | – |
| 126 nM | 44 nM | 9.4 | 31.8 nM | 935 nM | 2000 nM | – | CNC[C@H](c1ccc(Cl)c(Cl)c1)[C@@H](O)c1ccccc1I [Compound 152] | – | – | – | – | – | – |
| 55.4 nM | 170 nM | 9.4 | 55.8 nM | 69.5 nM | 2500 nM | – | CCc1cccc([C@@H](O)[C@H](CNC)c2ccc(Cl)c(Cl)c2)c1 [Compound 159] | – | – | – | – | – | – |
| 80 nM | 730 nM | 9.4 | 110 nM | 192 nM | 14000 nM | – | CNC[C@H](c1ccc(Cl)c(Cl)c1)[C@@H](O)c1cccc(SC)c1 [Compound 163] | – | – | – | – | – | – |
| 92.4 nM | 630 nM | 9.3 | 132 nM | 36.9 nM | 240 nM | 4.5 | CNC[C@H](c1ccc(Cl)c(Cl)c1)[C@H](O)c1cncc(OC)c1 [Compound 166] | – | – | – | – | – | – |
| 306 nM | 380 nM | 9.3 | 40 nM | 2010 nM | 4800 nM | – | CNC[C@H](c1ccc(Cl)c(Cl)c1)[C@@H](O)c1ccccc1S(C)(=O)=O [Compound 170] | – | – | – | – | – | – |
